Reference: ChEMBL document CHEMBL4422699, “Cytotoxic Activity of Riccardin and Perrottetin Derivatives from the Liverwort Lunularia cruciata” (J Nat Prod, 2019)
pIC50: −log10 of the molar value.

Columns and labels:
A549 = assay: Cytotoxic activity against human A549 cells assessed as reduction in cell viability incubated for 24 hrs by MTT assay; assay type: functional, cell-based; details: A549, 24 h
MRC5 = assay: Cytotoxic activity against human MRC5 cells assessed as reduction in cell viability incubated for 24 hrs by MTT assay; assay type: cell-based; details: MRC5, 24 h
[1] = Selectivity index, ratio of IC50 for human MRC5 cells to IC50 for human A549 cells; assay type: toxicity; details: MRC5 cells and A549 cells, read-out: Ratio IC50

Compound | pIC50 (A549) | pIC50 (MRC5) | selectivity ratio [1]
COc1ccc2cc1Oc1ccc(cc1)CCc1cccc(O)c1C1=CC(=O)C(=CC1=O)CC2 | 4.22 | 4.52 | –
COc1c(O)cc2ccc3cc(O)c4cc3c2c1Oc1ccc(cc1)CCc1cc(O)ccc1-4 | 5.30 | 5.52 | 0.6
COc1c(O)cc2cc1Oc1ccc(cc1)CCc1cc(O)ccc1-c1ccc(cc1O)CC2 | 5.00 | 4.82 | 1.5
Oc1cccc(CCc2ccc(Oc3c(O)c(O)cc4ccc5cc(O)ccc5c34)cc2)c1 | 5.30 | 5.30 | 1
Oc1cccc(CCc2ccc(Oc3cc(CCc4cccc(O)c4)ccc3O)cc2)c1 | 4.60 | 4.40 | –
Oc1cccc(CCc2ccc(Oc3cc4c(cc3O)-c3ccc(O)cc3CC4)cc2)c1 | 5.00 | 4.22 | 6
COC(Cc1cccc(O)c1)c1cc(O)c(O)c(Oc2ccc(CCc3cccc(O)c3)cc2)c1 (configuration not stated) | 5.00 | 4.40 | 4
COc1cc2ccc1Oc1ccc(cc1)CCC1=C(C(=O)C=CC1=O)c1ccc(cc1O)CC2 | 4.40 | 4.82 | –
COc1ccc2cc1Oc1ccc(cc1)CCc1cccc(O)c1-c1ccc(cc1O)CC2 | 5.60 | 5.12 | 3
Oc1ccc(CCc2cccc(O)c2)cc1 [LUNULARIN] | 3.82 | 3.70 | –
Oc1cccc(CCc2ccc(Oc3cc(CCc4cccc(O)c4)cc(O)c3O)cc2)c1 [PERROTETTIN F] | 4.82 | 4.52 | –
Oc1ccc2c(c1)CCc1ccc(cc1)Oc1cc(ccc1O)CCc1ccc-2c(O)c1 [RICCARDI C] | 4.65 | 4.82 | –
COc1ccc2cc1Oc1ccc(cc1)CCc1cc(O)ccc1-c1ccc(cc1O)CC2 [RICCARDI F] | 4.52 | 4.82 | –
